Test results reported in PubChem BioAssay (NCI).
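Five concentrations, 48 hours, 96-well plates. TGI: concentration producing complete growth inhibition.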

Key:
Test in all cases: NCI anticancer screen, dose series, 48 h
SK-MEL-5 melanoma = system: SK-MEL-5 melanoma
SF-268 CNS = system: SF-268 CNS
NCI-H226 lung = system: NCI-H226 lung
HOP-92 NSCLC = system: HOP-92 NSCLC
HL-60(TB) leukemia = system: HL-60(TB) leukemia
LOX IMVI melanoma = system: LOX IMVI melanoma
NCI-H460 lung = system: NCI-H460 lung
UO-31 renal = system: UO-31 renal
SW-620 colon = system: SW-620 colon
SNB-19 CNS = system: SNB-19 CNS

N#Cc1c(-c2ccco2)c2c(n(C3OC(CO)C(O)C(O)C3O)c1=S)CCCC2 (configuration not stated)
TGI (SK-MEL-5 melanoma): > 100 µM | TGI (SF-268 CNS): > 100 µM | TGI (NCI-H226 lung): > 100 µM | TGI (HOP-92 NSCLC): > 100 µM | TGI (HL-60(TB) leukemia): > 100 µM | TGI (LOX IMVI melanoma): > 100 µM | TGI (NCI-H460 lung): > 100 µM

COc1ccc(-c2nc3ncccn3c2-c2ccc(S(C)=O)cc2)cc1 (configuration not stated)
TGI (SK-MEL-5 melanoma): > 100 µM | TGI (UO-31 renal): > 100 µM | TGI (SW-620 colon): > 100 µM | TGI (SF-268 CNS): > 100 µM | TGI (SNB-19 CNS): > 100 µM | TGI (HOP-92 NSCLC): > 100 µM | TGI (HL-60(TB) leukemia): > 100 µM | TGI (LOX IMVI melanoma): > 100 µM | TGI (NCI-H460 lung): > 100 µM

Cc1ccc(-c2cc(-c3ccco3)nc(N)n2)o1
TGI (SK-MEL-5 melanoma): > 100 µM | TGI (UO-31 renal): > 100 µM | TGI (SW-620 colon): > 100 µM | TGI (SF-268 CNS): > 100 µM | TGI (NCI-H226 lung): > 100 µM | TGI (SNB-19 CNS): > 100 µM | TGI (HL-60(TB) leukemia): > 100 µM | TGI (LOX IMVI melanoma): > 100 µM | TGI (NCI-H460 lung): > 100 µM

CCOC(=O)c1cc2cc(Cc3ccc4[nH]c(C(=O)OCC)cc4c3)ccc2[nH]1
TGI (UO-31 renal): > 100 µM | TGI (SW-620 colon): > 100 µM | TGI (SF-268 CNS): 38.5 µM | TGI (NCI-H226 lung): 62.4 µM | TGI (SNB-19 CNS): 30.6 µM | TGI (HOP-92 NSCLC): 27.8 µM | TGI (HL-60(TB) leukemia): > 100 µM | TGI (LOX IMVI melanoma): > 100 µM | TGI (NCI-H460 lung): > 100 µM

COC(=O)c1ccc(CN2CCc3c([nH]c4ccccc34)C2CO)o1 (configuration not stated)
TGI (SK-MEL-5 melanoma): > 10 µM | TGI (SW-620 colon): > 10 µM | TGI (SF-268 CNS): > 10 µM | TGI (HOP-92 NSCLC): > 10 µM | TGI (HL-60(TB) leukemia): > 10 µM

COc1ccc(C2SCC(=O)N2N=C2NC(=O)CC(=O)N2)cc1 (configuration not stated)
TGI (SK-MEL-5 melanoma): > 100 µM | TGI (UO-31 renal): > 100 µM | TGI (SW-620 colon): > 100 µM | TGI (SF-268 CNS): > 100 µM | TGI (NCI-H226 lung): > 100 µM | TGI (HOP-92 NSCLC): > 100 µM | TGI (NCI-H460 lung): > 100 µM

CC12CC3c4ccccc4CN1C3(c1ccccc1)OC2=O (configuration not stated)
TGI (SK-MEL-5 melanoma): > 100 µM | TGI (UO-31 renal): > 100 µM | TGI (SW-620 colon): > 100 µM | TGI (SF-268 CNS): > 100 µM | TGI (NCI-H226 lung): > 100 µM | TGI (SNB-19 CNS): > 100 µM | TGI (HL-60(TB) leukemia): > 100 µM | TGI (LOX IMVI melanoma): > 100 µM

CC1C(c2ccc(N(C)C)cc2)c2cc3c(cc2OC1N1CCCC1)OCO3 (configuration not stated)
TGI (SK-MEL-5 melanoma): > 100 µM | TGI (UO-31 renal): > 100 µM | TGI (SW-620 colon): > 100 µM | TGI (SF-268 CNS): > 100 µM | TGI (SNB-19 CNS): > 100 µM | TGI (HOP-92 NSCLC): > 100 µM | TGI (HL-60(TB) leukemia): 73.6 µM | TGI (LOX IMVI melanoma): > 100 µM | TGI (NCI-H460 lung): > 95.3 µM

CCOC(=O)CC(C)C(C#N)(OP1(=O)OC(c2ccccc2)C(C)N1C)c1ccccc1 (configuration not stated)
TGI (SK-MEL-5 melanoma): > 100 µM | TGI (UO-31 renal): > 100 µM | TGI (SW-620 colon): > 100 µM | TGI (SF-268 CNS): > 100 µM | TGI (SNB-19 CNS): > 100 µM | TGI (HOP-92 NSCLC): > 100 µM | TGI (HL-60(TB) leukemia): 78.7 µM | TGI (LOX IMVI melanoma): > 100 µM | TGI (NCI-H460 lung): > 100 µM

N#CI1OC(=O)c2ccccc21
TGI (SK-MEL-5 melanoma): > 100 µM | TGI (UO-31 renal): > 100 µM | TGI (SW-620 colon): > 100 µM | TGI (SF-268 CNS): > 100 µM | TGI (NCI-H226 lung): > 100 µM | TGI (HL-60(TB) leukemia): > 100 µM | TGI (LOX IMVI melanoma): > 100 µM | TGI (NCI-H460 lung): > 100 µM

COC(=O)[C@]1(C)CCCn2c(=O)n(-c3ccccc3)c(=O)n21
TGI (SK-MEL-5 melanoma): > 100 µM | TGI (UO-31 renal): > 100 µM | TGI (SW-620 colon): > 100 µM | TGI (SF-268 CNS): > 100 µM | TGI (NCI-H226 lung): > 100 µM | TGI (SNB-19 CNS): > 100 µM | TGI (HOP-92 NSCLC): > 100 µM | TGI (LOX IMVI melanoma): > 100 µM

O=S(=O)(O)c1ccc(NN(c2c(O)ccc3ccccc23)S(=O)(=O)O)cc1
TGI (SK-MEL-5 melanoma): > 100 µM | TGI (UO-31 renal): > 100 µM | TGI (SW-620 colon): > 100 µM | TGI (SF-268 CNS): > 100 µM | TGI (NCI-H226 lung): > 100 µM | TGI (SNB-19 CNS): > 100 µM | TGI (HL-60(TB) leukemia): > 100 µM | TGI (LOX IMVI melanoma): > 100 µM | TGI (NCI-H460 lung): > 100 µM

Oc1c(OCc2nnc(CCCCCCCCc3nnc(COc4ccc5ccccc5c4O)n3Nc3ccccc3)n2Nc2ccccc2)ccc2ccccc12
TGI (SK-MEL-5 melanoma): 3.27 µM | TGI (UO-31 renal): 19.6 µM | TGI (SW-620 colon): 24.6 µM | TGI (SF-268 CNS): 27 µM | TGI (NCI-H226 lung): 24.1 µM | TGI (SNB-19 CNS): 29.8 µM | TGI (HOP-92 NSCLC): 32.3 µM | TGI (NCI-H460 lung): 20.5 µM

c1cc(-c2cscc2-c2ccsc2)cs1
TGI (SK-MEL-5 melanoma): > 100 µM | TGI (UO-31 renal): > 100 µM | TGI (SW-620 colon): > 100 µM | TGI (SF-268 CNS): > 100 µM | TGI (HOP-92 NSCLC): > 100 µM | TGI (HL-60(TB) leukemia): > 100 µM | TGI (LOX IMVI melanoma): > 100 µM | TGI (NCI-H460 lung): > 100 µM

COc1ccc(CN2C(=O)CCC/C=C\[C@H]2CI)cc1
TGI (SK-MEL-5 melanoma): 25.1 µM | TGI (UO-31 renal): 23.8 µM | TGI (SW-620 colon): 23.8 µM | TGI (SF-268 CNS): 27.2 µM | TGI (NCI-H226 lung): 25.5 µM | TGI (SNB-19 CNS): 25.9 µM | TGI (HOP-92 NSCLC): 25.3 µM | TGI (LOX IMVI melanoma): 34 µM | TGI (NCI-H460 lung): 25.7 µM

C=CCN1C(=O)CS/C1=N\NC(=O)c1c(C)nc2sccn12
TGI (SK-MEL-5 melanoma): > 100 µM | TGI (SW-620 colon): > 100 µM | TGI (SF-268 CNS): > 100 µM | TGI (NCI-H226 lung): > 100 µM | TGI (SNB-19 CNS): > 100 µM | TGI (HOP-92 NSCLC): > 100 µM | TGI (HL-60(TB) leukemia): > 100 µM | TGI (LOX IMVI melanoma): > 100 µM | TGI (NCI-H460 lung): > 100 µM

c1ccc(COc2ccc(C[P+](c3ccccc3)(c3ccccc3)c3ccccc3)cc2)cc1
TGI (SK-MEL-5 melanoma): 0.284 µM | TGI (UO-31 renal): 11 µM | TGI (SW-620 colon): 10.2 µM | TGI (SF-268 CNS): 14.2 µM | TGI (NCI-H226 lung): 22.4 µM | TGI (SNB-19 CNS): 14.8 µM | TGI (HOP-92 NSCLC): 0.585 µM | TGI (LOX IMVI melanoma): 2.56 µM | TGI (NCI-H460 lung): 3.81 µM

CN1CC(c2ccccc2)=Cc2c1ccc(N)c2N=N
TGI (SK-MEL-5 melanoma): > 100 µM | TGI (UO-31 renal): > 100 µM | TGI (SW-620 colon): > 100 µM | TGI (SF-268 CNS): > 100 µM | TGI (NCI-H226 lung): > 100 µM | TGI (SNB-19 CNS): > 100 µM | TGI (LOX IMVI melanoma): > 100 µM | TGI (NCI-H460 lung): > 100 µM

O=C(NCCNCCO)N/N=C/c1cccc([N+](=O)[O-])c1
TGI (SK-MEL-5 melanoma): > 100 µM | TGI (UO-31 renal): > 100 µM | TGI (SW-620 colon): > 100 µM | TGI (SF-268 CNS): > 100 µM | TGI (NCI-H226 lung): > 100 µM | TGI (HOP-92 NSCLC): > 100 µM | TGI (HL-60(TB) leukemia): > 100 µM | TGI (LOX IMVI melanoma): > 100 µM | TGI (NCI-H460 lung): > 100 µM

NCCC1(N)CCNCC1
TGI (SK-MEL-5 melanoma): > 100 µM | TGI (UO-31 renal): > 100 µM | TGI (SW-620 colon): > 100 µM | TGI (SF-268 CNS): > 100 µM | TGI (NCI-H226 lung): > 100 µM | TGI (SNB-19 CNS): > 100 µM | TGI (HOP-92 NSCLC): > 100 µM | TGI (HL-60(TB) leukemia): > 100 µM | TGI (NCI-H460 lung): > 100 µM

COc1ccc(C[C@@H]2CN(C(=O)c3ccccc3)[C@H](Cc3ccc(O)cc3)CN2C(=O)c2ccccc2)cc1Br
TGI (UO-31 renal): > 100 µM | TGI (SW-620 colon): > 100 µM | TGI (SF-268 CNS): > 100 µM | TGI (NCI-H226 lung): > 100 µM | TGI (SNB-19 CNS): > 100 µM | TGI (HOP-92 NSCLC): > 100 µM | TGI (HL-60(TB) leukemia): > 100 µM | TGI (LOX IMVI melanoma): > 100 µM | TGI (NCI-H460 lung): > 100 µM

Cc1c(C)c(C)c(-n2c(=O)n(C)c(=O)n2C(C)(C)C)c(C)c1C
TGI (SK-MEL-5 melanoma): > 100 µM | TGI (UO-31 renal): > 100 µM | TGI (SW-620 colon): > 100 µM | TGI (SF-268 CNS): > 100 µM | TGI (SNB-19 CNS): > 100 µM | TGI (HOP-92 NSCLC): > 100 µM | TGI (HL-60(TB) leukemia): > 100 µM | TGI (LOX IMVI melanoma): > 100 µM | TGI (NCI-H460 lung): > 100 µM

N/C(CC/C(N)=N\O)=N\O
TGI (SK-MEL-5 melanoma): > 100 µM | TGI (UO-31 renal): > 100 µM | TGI (SW-620 colon): > 100 µM | TGI (SF-268 CNS): > 100 µM | TGI (NCI-H226 lung): > 100 µM | TGI (SNB-19 CNS): > 100 µM | TGI (HOP-92 NSCLC): > 100 µM | TGI (LOX IMVI melanoma): > 100 µM | TGI (NCI-H460 lung): > 100 µM

C[N+]1(C)CC=C(N2CCOCC2)CC1
TGI (SK-MEL-5 melanoma): > 10 µM | TGI (UO-31 renal): > 10 µM | TGI (SW-620 colon): > 10 µM | TGI (SF-268 CNS): > 10 µM | TGI (NCI-H226 lung): > 10 µM | TGI (SNB-19 CNS): > 10 µM | TGI (HL-60(TB) leukemia): > 10 µM | TGI (LOX IMVI melanoma): > 10 µM | TGI (NCI-H460 lung): > 10 µM
